In patent US6417176B2, “Arylsulfonanilide phosphates” (Tularik, Inc., priority 1998, dated 2002) one finds GI50 data, which are given here for 1 substance.

As usually defined, the GI50 is the concentration giving 50% growth inhibition. Higher therefore signals less potent growth inhibition.

This assay relates to HeLa cells. Conditions: 72 hours of treatment, 50% growth inhibition.

Consider “5-(Pentafluorophenylsulfonamido)-2-methoxyphenyl phosphate [Example 1]”, for which growth was halved (GI50) at 15 nM.
